ChEMBL document CHEMBL3991601, “The target landscape of clinical kinase drugs” (Science, 2017)
Counter-ions that a name gives are not always drawn. Active and inactive are the calls of the source.

Tests used:
[1] = biological target: AP2-associated protein kinase 1 (Homo sapiens, UniProt Q2M2I8)
[2] = biological target: Mitogen-activated protein kinase 11 (Homo sapiens, UniProt Q15759)
[3] = biological target: T1, Succinate--CoA ligase [ADP-forming] subunit beta, mitochondrial (Homo sapiens, UniProt Q9P2R7)
T1 sequence (Q9P2R7 whole entry): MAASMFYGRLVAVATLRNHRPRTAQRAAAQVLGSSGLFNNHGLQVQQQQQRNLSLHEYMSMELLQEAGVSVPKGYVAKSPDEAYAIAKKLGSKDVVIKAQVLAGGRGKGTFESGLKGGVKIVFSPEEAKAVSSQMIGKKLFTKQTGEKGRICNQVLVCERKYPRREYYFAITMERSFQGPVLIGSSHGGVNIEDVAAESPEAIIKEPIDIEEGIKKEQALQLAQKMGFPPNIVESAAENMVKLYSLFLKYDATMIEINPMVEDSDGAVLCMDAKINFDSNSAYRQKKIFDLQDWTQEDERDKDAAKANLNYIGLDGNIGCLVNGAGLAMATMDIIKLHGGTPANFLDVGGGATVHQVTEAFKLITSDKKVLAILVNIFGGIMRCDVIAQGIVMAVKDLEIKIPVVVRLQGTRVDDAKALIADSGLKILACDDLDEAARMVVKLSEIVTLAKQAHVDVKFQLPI

[4] = biological target: Putative heat shock protein HSP 90-beta 2 (Homo sapiens, UniProt Q58FF8)
Focal adhesion kinase 1 = Focal adhesion kinase 1 (Homo sapiens, UniProt Q05397)
Activin receptor type-1B = biological target: T2, Activin receptor type-1B (Homo sapiens, UniProt P36896)
T2 sequence (P36896 whole entry): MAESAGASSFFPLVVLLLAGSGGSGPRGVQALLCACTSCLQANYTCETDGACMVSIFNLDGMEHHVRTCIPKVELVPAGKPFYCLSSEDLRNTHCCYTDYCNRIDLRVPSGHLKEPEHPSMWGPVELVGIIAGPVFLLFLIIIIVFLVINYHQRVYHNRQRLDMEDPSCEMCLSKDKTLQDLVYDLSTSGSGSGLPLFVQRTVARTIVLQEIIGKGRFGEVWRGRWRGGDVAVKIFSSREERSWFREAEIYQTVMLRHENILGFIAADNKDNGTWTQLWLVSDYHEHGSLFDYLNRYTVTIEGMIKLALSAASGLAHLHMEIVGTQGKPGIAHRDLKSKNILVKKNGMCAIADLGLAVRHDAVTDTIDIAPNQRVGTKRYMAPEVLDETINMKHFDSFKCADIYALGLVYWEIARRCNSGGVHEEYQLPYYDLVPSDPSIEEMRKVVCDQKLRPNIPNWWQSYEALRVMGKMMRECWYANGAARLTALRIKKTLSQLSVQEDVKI

[5] = biological target: Tyrosine-protein kinase Fyn (Homo sapiens, UniProt P06241)
[6] = biological target: Ribosomal protein S6 kinase beta-1 (Homo sapiens, UniProt P23443)
[7] = biological target: Casein kinase I isoform gamma-1 (Homo sapiens, UniProt Q9HCP0)
[8] = biological target: Casein kinase I isoform alpha (Homo sapiens, UniProt P48729)
[9] = biological target: Guanine nucleotide-binding protein G(i) subunit alpha-2 (Homo sapiens, UniProt P04899)
Ephrin type-B receptor 3 = biological target: T3, Ephrin type-B receptor 3 (Homo sapiens, UniProt P54753)
T3 sequence (P54753 whole entry): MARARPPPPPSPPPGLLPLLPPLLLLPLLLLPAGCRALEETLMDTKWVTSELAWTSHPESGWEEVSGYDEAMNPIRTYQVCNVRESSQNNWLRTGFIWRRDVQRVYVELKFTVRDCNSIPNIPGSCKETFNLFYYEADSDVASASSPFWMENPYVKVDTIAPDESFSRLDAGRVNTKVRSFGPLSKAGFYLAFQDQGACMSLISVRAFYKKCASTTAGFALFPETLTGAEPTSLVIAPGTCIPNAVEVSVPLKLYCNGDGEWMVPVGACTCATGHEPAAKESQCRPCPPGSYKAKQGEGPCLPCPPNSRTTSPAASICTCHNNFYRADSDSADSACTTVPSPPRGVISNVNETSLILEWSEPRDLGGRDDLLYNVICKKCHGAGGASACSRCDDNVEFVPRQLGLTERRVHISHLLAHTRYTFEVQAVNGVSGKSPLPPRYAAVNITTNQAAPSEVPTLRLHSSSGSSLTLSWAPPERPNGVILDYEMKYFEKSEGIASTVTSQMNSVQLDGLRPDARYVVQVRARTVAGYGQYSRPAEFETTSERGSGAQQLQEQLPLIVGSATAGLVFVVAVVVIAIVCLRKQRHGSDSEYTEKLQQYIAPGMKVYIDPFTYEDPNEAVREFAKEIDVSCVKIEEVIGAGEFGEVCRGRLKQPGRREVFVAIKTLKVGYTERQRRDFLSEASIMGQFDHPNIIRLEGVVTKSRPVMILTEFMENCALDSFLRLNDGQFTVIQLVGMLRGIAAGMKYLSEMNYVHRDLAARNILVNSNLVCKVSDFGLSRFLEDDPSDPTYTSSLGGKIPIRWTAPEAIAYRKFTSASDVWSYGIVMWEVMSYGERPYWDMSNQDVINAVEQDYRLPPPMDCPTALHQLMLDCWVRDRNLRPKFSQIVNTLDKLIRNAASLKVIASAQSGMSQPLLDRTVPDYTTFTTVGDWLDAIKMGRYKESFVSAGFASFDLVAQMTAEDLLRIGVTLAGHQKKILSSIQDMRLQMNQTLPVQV
Further: in the data inactive means no Kd found up to 30 µM.

Chain of Casein kinase I isoform gamma-1 (Q9HCP0 whole entry, canonical isoform): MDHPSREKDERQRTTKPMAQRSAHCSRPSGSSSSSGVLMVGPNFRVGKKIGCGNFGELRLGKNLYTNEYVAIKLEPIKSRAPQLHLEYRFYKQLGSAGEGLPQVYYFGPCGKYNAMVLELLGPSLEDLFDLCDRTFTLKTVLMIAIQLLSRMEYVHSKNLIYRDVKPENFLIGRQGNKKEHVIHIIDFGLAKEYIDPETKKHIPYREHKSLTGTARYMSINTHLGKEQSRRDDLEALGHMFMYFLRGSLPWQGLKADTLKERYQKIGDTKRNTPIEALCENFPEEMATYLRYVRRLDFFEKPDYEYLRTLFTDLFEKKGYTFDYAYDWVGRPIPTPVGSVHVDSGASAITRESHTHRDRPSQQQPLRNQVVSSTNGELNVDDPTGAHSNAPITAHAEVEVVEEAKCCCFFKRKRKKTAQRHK
Chain of AP2-associated protein kinase 1 (Q2M2I8 whole entry): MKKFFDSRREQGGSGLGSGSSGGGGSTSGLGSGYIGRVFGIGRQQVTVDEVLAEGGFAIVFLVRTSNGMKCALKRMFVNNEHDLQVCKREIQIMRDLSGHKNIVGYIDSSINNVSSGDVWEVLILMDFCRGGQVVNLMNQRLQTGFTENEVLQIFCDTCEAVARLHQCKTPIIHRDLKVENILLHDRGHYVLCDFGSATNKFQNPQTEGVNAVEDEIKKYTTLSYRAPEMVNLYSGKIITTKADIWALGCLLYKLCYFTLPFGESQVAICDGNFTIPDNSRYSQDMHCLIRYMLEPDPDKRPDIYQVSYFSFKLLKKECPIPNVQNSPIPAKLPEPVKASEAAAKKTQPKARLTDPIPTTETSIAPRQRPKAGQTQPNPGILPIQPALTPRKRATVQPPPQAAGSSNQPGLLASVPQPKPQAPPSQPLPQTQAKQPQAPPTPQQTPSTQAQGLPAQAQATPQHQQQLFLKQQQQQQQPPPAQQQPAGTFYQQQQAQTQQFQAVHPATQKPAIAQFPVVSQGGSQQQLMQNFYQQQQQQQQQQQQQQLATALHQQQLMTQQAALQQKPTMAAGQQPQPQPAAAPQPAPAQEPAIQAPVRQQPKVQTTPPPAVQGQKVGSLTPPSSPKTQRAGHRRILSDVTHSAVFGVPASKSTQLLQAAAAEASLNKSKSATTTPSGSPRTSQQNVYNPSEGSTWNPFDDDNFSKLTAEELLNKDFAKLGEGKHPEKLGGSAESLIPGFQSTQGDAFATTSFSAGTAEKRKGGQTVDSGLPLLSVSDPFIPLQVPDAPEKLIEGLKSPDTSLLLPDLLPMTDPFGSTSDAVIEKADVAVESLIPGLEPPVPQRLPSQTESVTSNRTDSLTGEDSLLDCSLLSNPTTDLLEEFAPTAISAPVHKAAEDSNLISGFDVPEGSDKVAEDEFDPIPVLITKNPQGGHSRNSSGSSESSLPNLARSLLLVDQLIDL
Chain of Focal adhesion kinase 1 (Q05397 whole entry): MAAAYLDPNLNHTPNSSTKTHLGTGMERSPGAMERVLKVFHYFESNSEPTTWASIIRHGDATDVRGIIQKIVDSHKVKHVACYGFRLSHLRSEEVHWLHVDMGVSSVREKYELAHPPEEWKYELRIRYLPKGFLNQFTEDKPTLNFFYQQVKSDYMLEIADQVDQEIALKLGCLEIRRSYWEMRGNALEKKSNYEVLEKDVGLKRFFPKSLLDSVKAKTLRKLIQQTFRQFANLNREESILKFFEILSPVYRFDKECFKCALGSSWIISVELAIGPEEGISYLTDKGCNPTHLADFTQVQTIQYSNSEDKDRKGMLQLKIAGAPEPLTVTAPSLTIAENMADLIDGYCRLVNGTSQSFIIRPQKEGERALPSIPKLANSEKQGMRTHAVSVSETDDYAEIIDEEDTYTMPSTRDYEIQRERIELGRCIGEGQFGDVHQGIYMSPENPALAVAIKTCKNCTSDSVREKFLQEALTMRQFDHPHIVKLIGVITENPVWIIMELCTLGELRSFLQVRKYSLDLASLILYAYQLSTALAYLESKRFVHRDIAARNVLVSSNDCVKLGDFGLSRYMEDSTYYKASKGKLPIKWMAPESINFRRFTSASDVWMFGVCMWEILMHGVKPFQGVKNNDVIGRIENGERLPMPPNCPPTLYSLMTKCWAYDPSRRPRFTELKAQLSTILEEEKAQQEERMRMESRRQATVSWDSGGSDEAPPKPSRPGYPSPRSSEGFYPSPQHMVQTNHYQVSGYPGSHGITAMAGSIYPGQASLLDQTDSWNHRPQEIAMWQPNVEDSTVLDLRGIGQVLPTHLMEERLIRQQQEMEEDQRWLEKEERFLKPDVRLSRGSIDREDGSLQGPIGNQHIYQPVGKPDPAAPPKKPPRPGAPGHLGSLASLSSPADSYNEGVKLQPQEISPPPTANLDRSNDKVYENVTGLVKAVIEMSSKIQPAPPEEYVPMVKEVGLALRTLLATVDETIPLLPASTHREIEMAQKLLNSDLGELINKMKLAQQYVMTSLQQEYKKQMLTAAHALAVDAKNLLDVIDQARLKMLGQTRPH
Chain of Ribosomal protein S6 kinase beta-1 (P23443 whole entry, canonical isoform): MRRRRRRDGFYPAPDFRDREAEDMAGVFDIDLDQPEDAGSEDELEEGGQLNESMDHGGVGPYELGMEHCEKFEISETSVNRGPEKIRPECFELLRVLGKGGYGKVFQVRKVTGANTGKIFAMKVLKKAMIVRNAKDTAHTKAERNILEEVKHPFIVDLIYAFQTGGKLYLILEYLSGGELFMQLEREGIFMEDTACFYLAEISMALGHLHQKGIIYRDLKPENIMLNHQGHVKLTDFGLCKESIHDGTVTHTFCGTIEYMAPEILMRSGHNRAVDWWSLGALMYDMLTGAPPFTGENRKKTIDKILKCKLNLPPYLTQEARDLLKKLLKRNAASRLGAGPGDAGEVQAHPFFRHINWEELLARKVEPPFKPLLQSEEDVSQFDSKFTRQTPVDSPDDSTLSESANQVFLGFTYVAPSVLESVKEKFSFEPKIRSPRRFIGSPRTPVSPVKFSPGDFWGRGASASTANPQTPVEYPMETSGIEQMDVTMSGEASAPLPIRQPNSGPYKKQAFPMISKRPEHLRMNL
Chain of Mitogen-activated protein kinase 11 (Q15759 whole entry): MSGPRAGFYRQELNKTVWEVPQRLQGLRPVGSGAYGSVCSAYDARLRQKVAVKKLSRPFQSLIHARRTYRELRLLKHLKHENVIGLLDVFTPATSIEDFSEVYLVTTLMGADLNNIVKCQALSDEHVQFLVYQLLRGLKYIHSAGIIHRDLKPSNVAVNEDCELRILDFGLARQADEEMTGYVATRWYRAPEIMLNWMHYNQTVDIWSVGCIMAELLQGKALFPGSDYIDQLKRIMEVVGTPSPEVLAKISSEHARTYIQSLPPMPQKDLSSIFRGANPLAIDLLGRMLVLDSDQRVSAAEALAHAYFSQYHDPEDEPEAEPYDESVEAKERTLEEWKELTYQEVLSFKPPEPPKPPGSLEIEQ
Chain of Putative heat shock protein HSP 90-beta 2 (Q58FF8 whole entry): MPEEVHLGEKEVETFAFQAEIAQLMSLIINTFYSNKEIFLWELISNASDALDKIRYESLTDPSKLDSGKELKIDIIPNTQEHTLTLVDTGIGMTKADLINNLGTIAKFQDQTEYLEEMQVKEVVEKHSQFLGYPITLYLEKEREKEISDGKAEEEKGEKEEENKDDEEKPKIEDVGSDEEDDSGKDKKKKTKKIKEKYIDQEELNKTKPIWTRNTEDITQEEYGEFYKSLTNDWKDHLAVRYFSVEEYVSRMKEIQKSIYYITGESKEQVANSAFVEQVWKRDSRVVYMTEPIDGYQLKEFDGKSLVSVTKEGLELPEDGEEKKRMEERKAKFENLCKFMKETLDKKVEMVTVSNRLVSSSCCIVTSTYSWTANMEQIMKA
Chain of Guanine nucleotide-binding protein G(i) subunit alpha-2 (P04899 whole entry): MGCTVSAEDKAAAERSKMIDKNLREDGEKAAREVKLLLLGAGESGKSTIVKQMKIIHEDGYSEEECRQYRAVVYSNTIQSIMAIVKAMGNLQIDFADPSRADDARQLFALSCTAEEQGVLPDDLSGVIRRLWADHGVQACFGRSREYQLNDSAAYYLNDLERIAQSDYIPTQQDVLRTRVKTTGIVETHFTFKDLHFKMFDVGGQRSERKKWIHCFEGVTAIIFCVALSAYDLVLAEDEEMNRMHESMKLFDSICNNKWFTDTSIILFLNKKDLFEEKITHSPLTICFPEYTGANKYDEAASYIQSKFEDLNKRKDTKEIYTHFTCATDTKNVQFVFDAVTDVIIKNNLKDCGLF
Chain of Tyrosine-protein kinase Fyn (P06241 whole entry): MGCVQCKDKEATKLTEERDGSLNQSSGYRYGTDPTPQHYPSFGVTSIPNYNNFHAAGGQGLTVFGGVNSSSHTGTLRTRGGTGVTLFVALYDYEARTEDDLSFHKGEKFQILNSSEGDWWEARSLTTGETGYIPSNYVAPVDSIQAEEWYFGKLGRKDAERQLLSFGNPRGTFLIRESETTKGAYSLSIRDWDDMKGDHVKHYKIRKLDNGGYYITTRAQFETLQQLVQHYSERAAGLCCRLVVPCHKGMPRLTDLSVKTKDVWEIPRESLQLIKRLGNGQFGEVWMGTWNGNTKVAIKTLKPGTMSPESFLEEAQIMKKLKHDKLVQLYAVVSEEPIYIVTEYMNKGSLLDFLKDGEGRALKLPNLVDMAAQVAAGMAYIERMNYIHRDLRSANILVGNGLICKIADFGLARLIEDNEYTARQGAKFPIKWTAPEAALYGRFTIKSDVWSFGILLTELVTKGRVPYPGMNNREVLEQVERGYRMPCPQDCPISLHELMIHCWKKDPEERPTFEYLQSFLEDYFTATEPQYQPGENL
Chain of Casein kinase I isoform alpha (P48729 whole entry, canonical isoform): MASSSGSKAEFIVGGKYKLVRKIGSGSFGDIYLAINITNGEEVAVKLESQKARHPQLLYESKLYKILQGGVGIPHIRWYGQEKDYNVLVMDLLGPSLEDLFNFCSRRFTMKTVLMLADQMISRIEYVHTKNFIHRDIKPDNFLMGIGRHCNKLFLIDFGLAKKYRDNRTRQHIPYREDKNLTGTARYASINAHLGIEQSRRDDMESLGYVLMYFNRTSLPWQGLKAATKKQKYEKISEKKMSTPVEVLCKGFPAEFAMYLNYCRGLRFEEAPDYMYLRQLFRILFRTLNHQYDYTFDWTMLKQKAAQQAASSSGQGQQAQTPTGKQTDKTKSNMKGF

SMILES | Kd [1] | Kd [2] | Kd [3] | Kd [4] | Kd (Focal adhesion kinase 1) | Kd (Activin receptor type-1B) | Kd [5] | Kd [6] | Kd [7] | Kd [8] | Kd [9] | Kd (Ephrin type-B receptor 3)
C[C@@H](Oc1cc(C(=O)Nc2ccc(C(=O)N3CCN(C)CC3)cc2)nnc1N)c1c(Cl)ccc(F)c1Cl | 22.2 µM (active) | > 30 µM (inactive) | > 30 µM (inactive) | > 30 µM (inactive) | > 30 µM (inactive) | > 30 µM (inactive) | > 30 µM (inactive) | > 30 µM (inactive) | > 30 µM (inactive) | > 30 µM (inactive) | > 30 µM (inactive) | > 30 µM (inactive)
C=CC(=O)Nc1cc2c(Nc3ccc(F)c(Cl)c3)ncnc2cc1C#CC(C)(C)N1CCN(C)CC1 [AV-412 FREE BASE] | > 30 µM (inactive) | > 30 µM (inactive) | > 30 µM (inactive) | > 30 µM (inactive) | > 30 µM (inactive) | > 30 µM (inactive) | > 30 µM (inactive) | > 30 µM (inactive) | > 30 µM (inactive) | > 30 µM (inactive) | > 30 µM (inactive) | > 30 µM (inactive)
COc1cc([C@@H]2c3cc4c(cc3[C@H](O)[C@H]3COC(=O)[C@@H]23)OCO4)cc(OC)c1OC [AXL-1717] | > 30 µM (inactive) | > 30 µM (inactive) | > 30 µM (inactive) | > 30 µM (inactive) | > 30 µM (inactive) | > 30 µM (inactive) | > 30 µM (inactive) | > 30 µM (inactive) | > 30 µM (inactive) | > 30 µM (inactive) | > 30 µM (inactive) | > 30 µM (inactive)
Cn1cnc2c(F)c(Nc3ccc(Br)cc3F)c(C(=O)NOCCO)cc21 [BINIMETINIB] | > 30 µM (inactive) | > 30 µM (inactive) | > 30 µM (inactive) | > 30 µM (inactive) | > 30 µM (inactive) | > 30 µM (inactive) | > 30 µM (inactive) | > 30 µM (inactive) | > 30 µM (inactive) | > 30 µM (inactive) | > 30 µM (inactive) | > 30 µM (inactive)
COc1c(OCCCN2CCOCC2)ccc2c1N=C(NC(=O)c1cnc(N)nc1)N1CCN=C21 [COPANLISIB] | > 30 µM (inactive) | > 30 µM (inactive) | > 30 µM (inactive) | > 30 µM (inactive) | > 30 µM (inactive) | > 30 µM (inactive) | > 30 µM (inactive) | > 30 µM (inactive) | > 30 µM (inactive) | > 30 µM (inactive) | > 30 µM (inactive) | > 30 µM (inactive)
CCS(=O)(=O)N1CCN(c2ccc(Nc3ncc(C(N)=O)c(NC4CC4)n3)cc2)CC1 [Cerdulatinib Hydrochloride] | 0.001 µM (active) | > 30 µM (inactive) | > 30 µM (inactive) | > 30 µM (inactive) | > 30 µM (inactive) | > 30 µM (inactive) | > 30 µM (inactive) | > 30 µM (inactive) | > 30 µM (inactive) | > 30 µM (inactive) | > 30 µM (inactive) | > 30 µM (inactive)
CNC(=O)c1cccc2cc(Oc3ccnc4cc(OCC5(N)CC5)c(OC)cc34)ccc12 [LUCITANIB] | > 30 µM (inactive) | > 30 µM (inactive) | > 30 µM (inactive) | > 30 µM (inactive) | > 30 µM (inactive) | > 30 µM (inactive) | > 30 µM (inactive) | > 30 µM (inactive) | > 30 µM (inactive) | > 30 µM (inactive) | > 30 µM (inactive) | > 30 µM (inactive)
FC(F)(F)c1ccc(/C=C/c2nc(COc3ccc(CCCCn4ccnn4)cc3)co2)cc1 [MUBRITINIB] | > 30 µM (inactive) | > 30 µM (inactive) | > 30 µM (inactive) | > 30 µM (inactive) | > 30 µM (inactive) | > 30 µM (inactive) | > 30 µM (inactive) | > 30 µM (inactive) | > 30 µM (inactive) | > 30 µM (inactive) | > 30 µM (inactive) | > 30 µM (inactive)
O=c1[nH]ccc2cc(OC3CCNCC3)ccc12 [SAR-407899 FREE BASE] | 0.012 µM (active) | > 30 µM (inactive) | > 30 µM (inactive) | > 30 µM (inactive) | > 30 µM (inactive) | > 30 µM (inactive) | > 30 µM (inactive) | > 30 µM (inactive) | > 30 µM (inactive) | > 30 µM (inactive) | > 30 µM (inactive) | > 30 µM (inactive)

More lines, now with the values ahead:

Kd [1] | Kd [2] | Kd [3] | Kd [4] | Kd (Focal adhesion kinase 1) | Kd (Activin receptor type-1B) | Kd [5] | Kd [6] | Kd [7] | Kd [8] | Kd [9] | Kd (Ephrin type-B receptor 3) | SMILES
> 30 µM (inactive) | 0.872 µM (active) | > 30 µM (inactive) | > 30 µM (inactive) | > 30 µM (inactive) | > 30 µM (inactive) | > 30 µM (inactive) | > 30 µM (inactive) | > 30 µM (inactive) | > 30 µM (inactive) | > 30 µM (inactive) | > 30 µM (inactive) | COc1cc2ncnc(Oc3cccc(NC(=O)Nc4cc(C(C)(C)C(F)(F)F)on4)c3)c2cc1OC [CEP-32496]
> 30 µM (inactive) | > 30 µM (inactive) | > 30 µM (inactive) | > 30 µM (inactive) | > 30 µM (inactive) | > 30 µM (inactive) | > 30 µM (inactive) | > 30 µM (inactive) | > 30 µM (inactive) | > 30 µM (inactive) | > 30 µM (inactive) | > 30 µM (inactive) | COCC(=O)NC/C=C/c1ccc2ncnc(Nc3ccc(Oc4ccc(C)nc4)c(C)c3)c2c1 [CP-724714]
3.65 µM (active) | > 30 µM (inactive) | > 30 µM (inactive) | > 30 µM (inactive) | > 30 µM (inactive) | > 30 µM (inactive) | > 30 µM (inactive) | > 30 µM (inactive) | > 30 µM (inactive) | > 30 µM (inactive) | > 30 µM (inactive) | > 30 µM (inactive) | CN(C[C@@H]1COCCO1)S(=O)(=O)Nc1ccc2ccc3ncc(-c4cnn(C)c4)cc3c(=O)c2c1 [MK-2461]
> 30 µM (inactive) | > 30 µM (inactive) | > 30 µM (inactive) | > 30 µM (inactive) | > 30 µM (inactive) | > 30 µM (inactive) | > 30 µM (inactive) | > 30 µM (inactive) | > 30 µM (inactive) | > 30 µM (inactive) | > 30 µM (inactive) | > 30 µM (inactive) | Cn1cc(-c2cnc3ccc4ccc(CS(=O)(=O)NCc5ccccn5)cc4c(=O)c3c2)cn1 [MK-8033]
